The values below come from patent US6541491B1, “4-mercaptopyrrolidine derivatives as farnesyl transferase inhibitors” (Zeneca Limited, priority 1995, dated 2003).

Structures can show the parent of a compound that is named as a salt.

The target in data set [1] is T1, Farnesyl protein transferase (FPT) (Homo sapiens, UniProt P49354+P49356).
T1 construct: partially purified from human placenta by ammonium sulphate fractionation; from tissue; host or cells: human placenta
As to the kind of experiment: Farnesyl protein transferase (FPT) inhibition, tritiated farnesyl pyrophosphate incorporation into ras-CVIM. The settings on record: FPT partially purified from human placenta; 300 nM tritiated farnesyl pyrophosphate, 120 nM ras-CVIM, 20 minutes at 37°. The format is biochemical. How it is done:
Biological activity was tested as follows. Farnesyl protein transferase (FPT) was partially purified from human placenta by ammonium sulphate fractionation followed by a single Q-Sepharose® (Pharmacia. Inc) anion exchange chromatography essentially as described by Ray and Lopez-Belmonte (Ray K P and Lopez-Belmonte J (1992) Biochemical Society Transations 20 494-497). The substrate for FPT was Kras (CVIM C-terminal sequence). The cDNA for oncogenic val 12 variant of human c-Ki-ras-24B was obtained from the plasmid pSW11-1(ATCC). This was then subcloned into the polylinker of a suitable expression vector e.g. plC 147. The Kras was obtained after expression in the E. coli strain, BL21. The expression and purification of c-KI-ras-24B and the vall2 variant in E. coli has also been reported by Lowe et al (Lowe P N et al. J. Biol. Chem. (1991) 266 1672-1678).
Incubations with enzyme contained 300 nM tritiated farnesyl pyrophosphate (DuPont/New England Nuclear), 120 nM ras-CVIM, 50 mM Tris HCl pH 8.0. 5 mM MgCl2, 10 μM ZnCl2, 5 mM dithiotheitol and compounds were added at appropriate concentrations in DMSO (3% final concentration in test and vehicle control). […] Precipitated protein was then collected onto glass fibre filter mats (B) using a Tomtec® cell harvester and tritiated label was measured in a Wallac® 1204 Betaplate scintillation counter.

In turn, `O=C(NCc1ccc(Cl)c(Cl)c1)c1ccc(C(=O)NC[C@@H]2C[C@H](S)CN2)nc1` (as salt: salt) [Example 13, 5-[N-(3,4-dichlorobenzyl)carbamoyl]-N-((2S,4S)-4-sulfanylpyrrolidin-2-yl-methyl)pyridine-2-carboxamide] displayed a melting point of 101 to 105 °C.

For the molecule `C=CCOC(=O)c1cc(NC(=O)[C@@H]2C[C@H](SC(C)=O)CN2C(=O)OCc2ccc([N+](=O)[O-])cc2)cc(C(=O)N(C)OC)c1` [Example 7, 5 {[(2S,4S),4-acetylsulfanyl-1-(4-nitro-benzyloxycarbonyl)-pyrrolidine-2-carbonyl]-amino}-3(N-methyl-methoxycarbamoyl)-benzoic acid allyl ester], the IC50 in data set [1] is roughly 500 nM.

In general, melting point refers to the temperature of the solid-liquid transition. Usually IC50 stands for the concentration at which inhibition is half-maximal.
